Tests used:
murine leukemia L1210 = assay: Antitumor activity test on murine leukemia L1210 in vivo; parameters: species or system male BDF1 mice; details: days 1, 5, 9
Description: 2. Antitumor activity test on murine leukemia L1210 in vivo
Murine leukemia L1210 cells were maintained in the peritoneal cavities of 6-week-old male DBA/2 mice by weekly transfer in accordance with the procedure described in cancer chemotherapy Reports, Part 3, 3(2), 7 (1972). Specifically, 1×10^6 leukemia cells were inoculated into the abdominal cavities of 6-week-old male BDF1 mice weighing 21±3 g on day 0. Each treatment group consisted of seven mice. The test compounds were dissolved or suspended in 0.5% carboxymethyl cellulose(CMC)solution (in water) and were administered intraperitoneally on days 1, 5, and 9 relative to the tumor inoculation.
Thirty mice of 6-week-old male BDF1 weighing 21±3 g were used as the control group, which were injected with 0.5% CMC solution only in the same manner as above.
Anti-tumor activities of the compounds were evaluated in terms of the T/C % values calculated from the mean survival time(T) of the compound-treated group over that(C) of the control group. [formula]

ICR mice = assay: Acute toxicity test; assay type: in vivo; parameters: Lethality: unit not given here; details: for Lethality: 10080 min
Description: 7-week-old ICR mice(male: 34±2 g; female: 31±2 g) were fed with solid food and water under the condition of 23±1° C. temperature and 65±5% humidity before the test.
Each treatment group consisted of 6 mice. The test compounds were administered intraperitoneally.
For 7 days after the administration, the appearance and the fate of the tested animals were recorded. The dead animals were subjected to autopsy and their visible pathological changes were observed. Their viscerals were stored in 10% formalin solution.

[1] = system: murine leukemia L1210 cells; assay: Growth inhibition test on cultured murine leukemia L1210 cells; assay type: cell-based; details: 48 hours, 37° C., Trypan blue viability
Description: 1. Growth inhibition test on cultured murine leukemia L1210 cells
Murine leukemia L1210 cells(1×10^5) were treated with various concentrations of the compounds prepared in the above examples in RPMI 1640 medium supplemented with 10% fetal calf serum, and cultured in a 5% CO2 humidified incubator at 37° C. for 48 hours. Their viability, estimated by staining with 0.17% Trypan blue, was compared with that of control cells cultured in the identical medium without the compounds.

[2] = Test for water solubility; assay type: physicochemical; details: water
Source text: 3. Test for water solubility
A standard plot of UV absorbance(220 nm) vs. concentration was made; and employed to determine water-solubility.
The mixture was then passed through a 0.45 micron disposable membrane filter before dilution and UV measurement.

CC1(C)O[C@H](CN)[C@@H](CN)O1.O=C1C[O][Pt][O]1 [Example 2, (glycolato-O,O')[(4R,5R)-4,5-bis(aminomethyl)-2,2-dimethyl-1,3-dioxolane]platinum(II)]
T/C (%) (murine leukemia L1210; 3.1 mg/kg i.p.): 112%
T/C (%) (murine leukemia L1210; 6.2 mg/kg i.p.): 179%
T/C (%) (murine leukemia L1210; 12.5 mg/kg i.p.): 201%
T/C (%) (murine leukemia L1210; 25 mg/kg i.p.): toxic
T/C (%) (murine leukemia L1210; 50 mg/kg i.p.): toxic
Number of dead mice for 7 days (ICR mice; female, 25.0 mg/kg i.p.): 0/6
Number of dead mice, 1st day (ICR mice; female, 25.0 mg/kg i.p.): 0/6
Number of dead mice for 7 days (ICR mice; female, 32.5 mg/kg i.p.): 3/6
Number of dead mice, 1st day (ICR mice; female, 32.5 mg/kg i.p.): 0/6
Number of dead mice, 3rd day (ICR mice; female, 32.5 mg/kg i.p.): 2/6
Number of dead mice, 4th day (ICR mice; female, 32.5 mg/kg i.p.): 1/4
Lethality (ICR mice; female, 32.5 mg/kg i.p.): 50.0
Number of dead mice for 7 days (ICR mice; female, 42.3 mg/kg i.p.): 4/6
Number of dead mice, 1st day (ICR mice; female, 42.3 mg/kg i.p.): 0/6
Number of dead mice, 3rd day (ICR mice; female, 42.3 mg/kg i.p.): 3/6
Number of dead mice, 4th day (ICR mice; female, 42.3 mg/kg i.p.): 1/3
Lethality (ICR mice; female, 42.3 mg/kg i.p.): 66.7
Number of dead mice for 7 days (ICR mice; female, 55.0 mg/kg i.p.): 6/6
Number of dead mice, 1st day (ICR mice; female, 55.0 mg/kg i.p.): 0/6
Number of dead mice, 3rd day (ICR mice; female, 55.0 mg/kg i.p.): 4/6
Number of dead mice, 4th day (ICR mice; female, 55.0 mg/kg i.p.): 1/2
Number of dead mice, 5th day (ICR mice; female, 55.0 mg/kg i.p.): 1/1
Lethality (ICR mice; female, 55.0 mg/kg i.p.): 100.0
Number of dead mice for 7 days (ICR mice; female, 71.4 mg/kg i.p.): 6/6
Number of dead mice, 1st day (ICR mice; female, 71.4 mg/kg i.p.): 0/6
Number of dead mice, 3rd day (ICR mice; female, 71.4 mg/kg i.p.): 4/6
Number of dead mice, 4th day (ICR mice; female, 71.4 mg/kg i.p.): 2/2
Lethality (ICR mice; female, 71.4 mg/kg i.p.): 100.0
Number of dead mice for 7 days (ICR mice; male, 25.0 mg/kg i.p.): 0/6
Number of dead mice, 1st day (ICR mice; male, 25.0 mg/kg i.p.): 0/6
Number of dead mice for 7 days (ICR mice; male, 32.5 mg/kg i.p.): 3/6
Number of dead mice, 1st day (ICR mice; male, 32.5 mg/kg i.p.): 0/6
Number of dead mice, 3rd day (ICR mice; male, 32.5 mg/kg i.p.): 1/6
Number of dead mice, 4th day (ICR mice; male, 32.5 mg/kg i.p.): 1/5
Number of dead mice, 5th day (ICR mice; male, 32.5 mg/kg i.p.): 1/4
Lethality (ICR mice; male, 32.5 mg/kg i.p.): 50.0
Number of dead mice for 7 days (ICR mice; male, 42.3 mg/kg i.p.): 5/6
Number of dead mice, 1st day (ICR mice; male, 42.3 mg/kg i.p.): 0/6
Number of dead mice, 3rd day (ICR mice; male, 42.3 mg/kg i.p.): 3/6
Number of dead mice, 4th day (ICR mice; male, 42.3 mg/kg i.p.): 2/3
Lethality (ICR mice; male, 42.3 mg/kg i.p.): 83.3
Number of dead mice for 7 days (ICR mice; male, 55.0 mg/kg i.p.): 6/6
Number of dead mice, 1st day (ICR mice; male, 55.0 mg/kg i.p.): 0/6
Number of dead mice, 3rd day (ICR mice; male, 55.0 mg/kg i.p.): 4/6
Number of dead mice, 4th day (ICR mice; male, 55.0 mg/kg i.p.): 1/2
Number of dead mice, 5th day (ICR mice; male, 55.0 mg/kg i.p.): 1/1
Lethality (ICR mice; male, 55.0 mg/kg i.p.): 100.0
Number of dead mice for 7 days (ICR mice; male, 71.4 mg/kg i.p.): 6/6
Number of dead mice, 1st day (ICR mice; male, 71.4 mg/kg i.p.): 0/6
Number of dead mice, 3rd day (ICR mice; male, 71.4 mg/kg i.p.): 4/6
Number of dead mice, 4th day (ICR mice; male, 71.4 mg/kg i.p.): 2/2
Lethality (ICR mice; male, 71.4 mg/kg i.p.): 100.0
IC50 (concentration required for 50% inhibition of growth) [1]: 0.15 µg/mL
Solubility in water [2]: 17.5 mg/mL

NC[C@H]1OC2(CCCC2)O[C@@H]1CN.O=C1C[O][Pt][O]1 [Example 3, (glycolato-O,O')[(4R,5R)-4,5-bis(aminomethyl)-1,3-dioxolane-2-spiro-1'-cyclopentane]platinum (II)]
T/C (%) (murine leukemia L1210; 3.1 mg/kg i.p.): 154%
T/C (%) (murine leukemia L1210; 6.2 mg/kg i.p.): 161%
T/C (%) (murine leukemia L1210; 12.5 mg/kg i.p.): 295%
T/C (%) (murine leukemia L1210; 25 mg/kg i.p.): toxic
T/C (%) (murine leukemia L1210; 50 mg/kg i.p.): toxic
Number of dead mice for 7 days (ICR mice; female, 25.0 mg/kg i.p.): 0/6
Number of dead mice, 1st day (ICR mice; female, 25.0 mg/kg i.p.): 0/6
Number of dead mice for 7 days (ICR mice; female, 32.5 mg/kg i.p.): 0/6
Number of dead mice, 1st day (ICR mice; female, 32.5 mg/kg i.p.): 0/6
Number of dead mice for 7 days (ICR mice; female, 42.3 mg/kg i.p.): 2/6
Number of dead mice, 1st day (ICR mice; female, 42.3 mg/kg i.p.): 0/6
Number of dead mice, 4th day (ICR mice; female, 42.3 mg/kg i.p.): 1/6
Number of dead mice, 5th day (ICR mice; female, 42.3 mg/kg i.p.): 1/5
Lethality (ICR mice; female, 42.3 mg/kg i.p.): 33.3
Number of dead mice for 7 days (ICR mice; female, 55.0 mg/kg i.p.): 5/6
Number of dead mice, 1st day (ICR mice; female, 55.0 mg/kg i.p.): 0/6
Number of dead mice, 3rd day (ICR mice; female, 55.0 mg/kg i.p.): 4/6
Number of dead mice, 4th day (ICR mice; female, 55.0 mg/kg i.p.): 1/2
Lethality (ICR mice; female, 55.0 mg/kg i.p.): 83.2
Number of dead mice for 7 days (ICR mice; female, 71.4 mg/kg i.p.): 6/6
Number of dead mice, 1st day (ICR mice; female, 71.4 mg/kg i.p.): 0/6
Number of dead mice, 3rd day (ICR mice; female, 71.4 mg/kg i.p.): 4/6
Number of dead mice, 4th day (ICR mice; female, 71.4 mg/kg i.p.): 2/2
Lethality (ICR mice; female, 71.4 mg/kg i.p.): 100.0
Number of dead mice for 7 days (ICR mice; male, 25.0 mg/kg i.p.): 0/6
Number of dead mice, 1st day (ICR mice; male, 25.0 mg/kg i.p.): 0/6
Number of dead mice for 7 days (ICR mice; male, 32.5 mg/kg i.p.): 0/6
Number of dead mice, 1st day (ICR mice; male, 32.5 mg/kg i.p.): 0/6
Number of dead mice, 4th day (ICR mice; male, 32.5 mg/kg i.p.): 1/6
Number of dead mice for 7 days (ICR mice; male, 42.3 mg/kg i.p.): 2/6
Number of dead mice, 1st day (ICR mice; male, 42.3 mg/kg i.p.): 0/6
Number of dead mice, 4th day (ICR mice; male, 42.3 mg/kg i.p.): 1/6
Lethality (ICR mice; male, 42.3 mg/kg i.p.): 33.3
Number of dead mice for 7 days (ICR mice; male, 55.0 mg/kg i.p.): 6/6
Number of dead mice, 1st day (ICR mice; male, 55.0 mg/kg i.p.): 0/6
Number of dead mice, 3rd day (ICR mice; male, 55.0 mg/kg i.p.): 4/6
Number of dead mice, 4th day (ICR mice; male, 55.0 mg/kg i.p.): 1/2
Number of dead mice, 5th day (ICR mice; male, 55.0 mg/kg i.p.): 1/1
Lethality (ICR mice; male, 55.0 mg/kg i.p.): 100.0
Number of dead mice for 7 days (ICR mice; male, 71.4 mg/kg i.p.): 6/6
Number of dead mice, 1st day (ICR mice; male, 71.4 mg/kg i.p.): 0/6
Number of dead mice, 3rd day (ICR mice; male, 71.4 mg/kg i.p.): 4/6
Number of dead mice, 4th day (ICR mice; male, 71.4 mg/kg i.p.): 2/2
Lethality (ICR mice; male, 71.4 mg/kg i.p.): 100.0
IC50 (concentration required for 50% inhibition of growth) [1]: 0.10 µg/mL
Solubility in water [2]: 5.8 mg/mL

Reference: patent US5395947A, “Platinum(II) complex and processes for preparing the same” (Sunkyong Industries, Ltd., priority 1991, dated 1995)
